Several values for one entry are separate records, joined by “and”; a condition that tells them apart may be missing. Equal values may be shown once.
Legend:
[1] = system: CD1 mice; assay: Tail-flick antinociception in CD1 mice; format: in vivo, mouse; conditions: Fig 9b; 25 mg/kg, sc; mean of 8 animals
[2] = target: T1, hMOR (Homo sapiens, UniProt P35372); assay: CAMYEL BRET cAMP agonist assay at hMOR; format: cell-based; conditions: for cAMP %: hMOR, single replicates, source data Fig 6c, listed as C11-F-7OH (22)
T1 construct: expressed in transfected cells; plasmid a gift from Dr. Nevin Lambert

[3] = target: T2, mMOR (Mus musculus, UniProt P42866); assay: CAMYEL BRET antagonism assay at mMOR (inhibition of DAMGO); format: cell-based; conditions: for Antagonist activity at mMOR, raw signal (single replicate values): source data of Fig 8a and Table 5, listed as C11-F-7OH (22);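 for Antagonist activity at mMOR, raw signal (single replicate values): BRET signal rises as cAMP falls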
T2 construct: signal peptide (heterologous, not specified) (N); expressed in transfected cells; pcDNA3.1(+) construct made in house

[4] = target: T2, mMOR; assay: CAMYEL BRET cAMP agonist assay at mMOR; format: cell-based; conditions: mMOR; for cAMP %: single replicates, source data Fig 6b, listed as C11-F-7OH (22)
[5] = target: T3, mDOR (Mus musculus, UniProt P32300); assay: [125I]BNtxA radioligand competition binding, mouse DOR; conditions: mean ± SEM, n = 3; [125I]BNtxA; read-out: Ki ± SEM mDOR
T3 construct: expressed in transfected cells

[6] = target: T3, mDOR; assay: CAMYEL BRET cAMP agonist assay at mDOR; format: cell-based; conditions: for Agonist activity of 7OH analogs at mDOR: single replicate values, Supplementary Figure 7B
[7] = target: T4, rKOR (Rattus norvegicus, UniProt P34975); assay: CAMYEL BRET cAMP agonist assay at rKOR; format: cell-based; conditions: individual replicates, Supplementary Figure 8B source data
T4 construct: expressed in transfected cells

[8] = Log[drug] (M) -13, cAMP inhibition as % of DAMGO

T4 sequence (P34975 whole entry): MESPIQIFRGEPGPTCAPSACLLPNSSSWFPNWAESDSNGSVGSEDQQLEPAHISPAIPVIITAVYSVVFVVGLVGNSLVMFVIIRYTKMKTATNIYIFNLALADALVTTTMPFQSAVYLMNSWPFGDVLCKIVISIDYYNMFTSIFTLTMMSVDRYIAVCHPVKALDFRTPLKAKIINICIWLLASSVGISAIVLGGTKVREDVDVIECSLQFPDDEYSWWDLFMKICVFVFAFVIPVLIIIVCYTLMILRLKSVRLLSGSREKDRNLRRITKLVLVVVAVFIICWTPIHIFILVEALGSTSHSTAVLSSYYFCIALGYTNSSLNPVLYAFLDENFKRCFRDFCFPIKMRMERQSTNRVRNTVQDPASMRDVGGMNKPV
T3 sequence (P32300 whole entry): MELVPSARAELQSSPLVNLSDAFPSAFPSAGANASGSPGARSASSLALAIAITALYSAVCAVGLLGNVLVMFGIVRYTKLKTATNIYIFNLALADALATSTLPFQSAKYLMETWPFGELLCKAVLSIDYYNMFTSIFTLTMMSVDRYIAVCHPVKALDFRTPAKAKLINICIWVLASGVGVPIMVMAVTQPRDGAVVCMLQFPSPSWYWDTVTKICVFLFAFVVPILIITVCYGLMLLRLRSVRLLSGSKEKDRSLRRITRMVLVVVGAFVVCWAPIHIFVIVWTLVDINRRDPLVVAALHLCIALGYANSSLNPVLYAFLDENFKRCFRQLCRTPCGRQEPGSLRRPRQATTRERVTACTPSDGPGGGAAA
T1 sequence (P35372 whole entry): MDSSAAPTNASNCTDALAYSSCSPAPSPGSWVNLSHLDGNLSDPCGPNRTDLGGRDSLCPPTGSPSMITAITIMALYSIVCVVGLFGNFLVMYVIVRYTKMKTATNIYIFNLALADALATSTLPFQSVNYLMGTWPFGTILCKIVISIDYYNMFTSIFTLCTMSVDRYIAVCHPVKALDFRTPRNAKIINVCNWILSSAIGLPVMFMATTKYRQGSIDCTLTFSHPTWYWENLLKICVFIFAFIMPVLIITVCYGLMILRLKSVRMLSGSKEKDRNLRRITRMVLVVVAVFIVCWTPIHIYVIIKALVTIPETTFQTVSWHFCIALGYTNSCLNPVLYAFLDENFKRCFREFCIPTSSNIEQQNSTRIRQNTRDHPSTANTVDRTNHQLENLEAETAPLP
T2 sequence (P42866 whole entry): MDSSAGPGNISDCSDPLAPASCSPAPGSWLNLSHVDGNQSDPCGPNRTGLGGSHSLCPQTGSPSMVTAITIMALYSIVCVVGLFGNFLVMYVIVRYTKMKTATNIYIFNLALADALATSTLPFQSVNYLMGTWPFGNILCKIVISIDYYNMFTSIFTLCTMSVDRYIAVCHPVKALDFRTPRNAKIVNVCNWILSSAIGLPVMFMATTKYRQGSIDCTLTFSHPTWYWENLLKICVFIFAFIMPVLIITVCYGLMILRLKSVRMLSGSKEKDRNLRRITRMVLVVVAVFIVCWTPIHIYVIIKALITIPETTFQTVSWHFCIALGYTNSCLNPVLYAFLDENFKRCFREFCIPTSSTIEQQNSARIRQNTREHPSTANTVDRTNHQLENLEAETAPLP

In the case of `CC[C@@H]1CN2CC[C@@]3(O)C(=Nc4cc(F)cc(OC)c43)[C@@H]2C[C@@H]1/C(=C\OC)C(=O)OC` [11-F-7OH (22), 11-Fluoro-7-hydroxymitragynine], the “Tail flick latency in secs, mean” value [1] is reported as 4.9 s, the EC50 [2] is reported as 29.4 nM and the Emax [2] is reported as 57%. For the same compound, the cAMP % ([2]; Log[drug] (M) -5) was 51.264% and 45.9513% and 58.1795% and 79.6476% and 68.1188% and 65.3013% and 52.2398% and 64.2986% and 49.6622%, the cAMP % ([2]; Log[drug] (M) -6) was 56.7369% and 57.602% and 54.9333% and 67.8605% and 67.5648% and 53.8544% and 46.4412% and 33.3921% and 44.9213% and the cAMP % ([2]; Log[drug] (M) -7) was 48.1791% and 37.8893% and 39.1827% and 53.5374% and 50.3292% and 51.3541% and 36.9409% and 28.5036% and 44.2511%. The cAMP % ([2]; Log[drug] (M) -8) was 15.2392% and 22.4344% and 23.7656% and 25.1778% and 17.6434% and 19.3494% and 5.0692% and 13.2412% and 14.3735%, the cAMP % ([2]; Log[drug] (M) -9) was 4.113% and -7.3719% and 5.178% and 7.448% and -11.6959% and 4.5476% and -1.276% and -3.182% and 19.3939% and the cAMP % ([2]; Log[drug] (M) -10) was 2.241% and -1.74% and -0.501% and 4.727% and -5.3691% and 0.6426% and 5.237% and 2.017% and 7.517%. For the same compound, the cAMP % ([2]; Log[drug] (M) -11) was 9.244% and 1.716% and -4.082% and 4.12% and 6.65% and 8.68% and 7.357% and 0.1804% and -7.538%, the cAMP % [2, 8] was 3.279% and -3.532% and 2.642% and -0.9485% and 1.819% and 3.865% and 2.979% and -0.05442% and 0.9166% and the IC50 [3] was 260 nM. The “Antagonist activity at mMOR, raw signal (single replicate values)” value (“Antagonist activity at mMOR, raw signal” for short) ([3]; Log[drug] (M) -5) was 0.03322 and 0.03306 and 0.04505 and 0.03409 and 0.04171 and 0.03584 and 0.0591 and 0.05619 and 0.05325, the “Antagonist activity at mMOR, raw signal” value ([3]; Log[drug] (M) -6) was 0.06086 and 0.0551 and 0.06302 and 0.07276 and 0.06512 and 0.0766 and 0.06642 and 0.06116 and 0.08827 and the “Antagonist activity at mMOR, raw signal” value ([3]; Log[drug] (M) -7) was 0.1571 and 0.1681 and 0.1534 and 0.1529 and 0.1704 and 0.1581 and 0.1507 and 0.1426 and 0.1477. For the same compound, the “Antagonist activity at mMOR, raw signal” value ([3]; Log[drug] (M) -8) was 0.2123 and 0.2016 and 0.2091 and 0.1893 and 0.2024 and 0.2047 and 0.1631 and 0.1656 and 0.156, the “Antagonist activity at mMOR, raw signal” value ([3]; Log[drug] (M) -9) was 0.2046 and 0.2165 and 0.2136 and 0.191 and 0.2101 and 0.1873 and 0.1659 and 0.1752 and 0.1707 and the “Antagonist activity at mMOR, raw signal” value ([3]; Log[drug] (M) -10) was 0.2086 and 0.2076 and 0.2154 and 0.2091 and 0.201 and 0.211 and 0.1814 and 0.1819 and 0.178. For the same compound, the “Antagonist activity at mMOR, raw signal” value ([3]; Log[drug] (M) -11) was 0.2091 and 0.1929 and 0.2264 and 0.2001 and 0.2059 and 0.2094 and 0.1761 and 0.1779 and 0.1909, the cAMP % ([4]; Log[drug] (M) -5) was 18.6612% and 13.4113% and 8.551% and 30.7876% and 22.9326% and 28.8572% and 20.3955% and 21.355% and 24.4984% and the cAMP % ([4]; Log[drug] (M) -6) was 25.4304% and 7.798% and 14.3775% and 23.1589% and 22.9335% and 14.5614% and 26.2834% and 10.6621% and 13.744%. The cAMP % ([4]; Log[drug] (M) -7) was 4.791% and 10.9715% and 7.661% and 21.2718% and 20.4101% and 18.8827% and 13.0494% and 8.164% and 16.1975%, the cAMP % ([4]; Log[drug] (M) -8) was 1.666% and 6.134% and 7.138% and 7.653% and 6.95% and 8.768% and 3.363% and -0.1101% and 16.7433% and the cAMP % ([4]; Log[drug] (M) -9) was 0.8145% and -7.096% and 6.2815% and 3.889% and -6.162% and 2.273% and -4.16% and 0.06827% and 4.092%. For the same compound, the cAMP % ([4]; Log[drug] (M) -10) was 13.6379% and 11.7751% and 16.0473% and 16.5566% and -2.169% and 7.345% and 0.7238% and 2.035% and 11.7782%, the cAMP % ([4]; Log[drug] (M) -11) was 20.0905% and 12.8035% and 2.268% and 1.246% and -1.253% and 18.3526% and 6.666% and -0.8467% and -5.17% and the cAMP % [4, 8] was 13.7634% and 17.6649% and 9.384% and 11.7249% and -6.349% and 6.202% and -0.02358% and 4.732% and 0.04545%. For the same compound, the Emax ([4]; maximal inhibitory effect on cAMP levels relative to DAMGO) was 21%, the EC50 ([4]; n = 3, read-out: EC50) was 97 nM and the Ki [5] was 35.8 ± 2 nM. The “Agonist activity of 7OH analogs at mDOR” value ([6]; Log[drug] (M) -5) was 47.1654 and 47.1068 and 50.635 and 37.9412 and 42.0474 and 46.3733 and 28.2147 and 32.1025 and 39.5821, the “Agonist activity of 7OH analogs at mDOR” value ([6]; Log[drug] (M) -6) was 47.099 and 41.9872 and 38.3786 and 51.107 and 48.5979 and 35.3577 and 31.3142 and 12.8186 and 22.449 and the “Agonist activity of 7OH analogs at mDOR” value ([6]; Log[drug] (M) -7) was 30.1688 and 32.9372 and 28.2956 and 32.0377 and 31.8373 and 22.4143 and 6.1677 and 13.5479 and 12.0733. For the same compound, the “Agonist activity of 7OH analogs at mDOR” value ([6]; Log[drug] (M) -8) was 13.6765 and -5.445 and -5.108 and 13.4452 and 4.719 and 1.33 and -3.9215 and 5.792, the “Agonist activity of 7OH analogs at mDOR” value ([6]; Log[drug] (M) -9) was -4.727 and 10.4426 and 11.2028 and 10.7963 and -1.115 and -6.036 and 3.188 and 1.136 and -3.325 and the “Agonist activity of 7OH analogs at mDOR” value ([6]; Log[drug] (M) -10) was -4.225 and 3.531 and 0.6939 and 1.589 and -3.887 and 2.298 and 4.3674 and 7.155 and 10.722. The “Agonist activity of 7OH analogs at mDOR” value ([6]; Log[drug] (M) -11) was 12.0117 and 1.607 and 13.3008 and 5.9086 and 13.4698 and 3.259 and 9.679 and 6.216 and 9.4253, the “Agonist activity of 7OH analogs at mDOR” value ([6]; Log[drug] (M) -13) was -0.8332 and 15.6965 and -5.824 and 1.284 and 2.644 and 6.574 and -5.56 and 1.8034 and 3.757 and the EC50 ([6]; mDOR cAMP BRET, read-out: EC50) was 102 nM. The Emax ([6]; read-out: Emax) was 41%, the “Agonist activity of 7OH analogs at rKOR” value ([7]; Log [drug](M) -5) was 22.082 and 29.1799 and 24.9804 and 9.107 and 13.0188 and 13.182 and 6.083 and 2.973 and 4.112 and the “Agonist activity of 7OH analogs at rKOR” value ([7]; Log [drug](M) -6) was 13.2987 and 25.9578 and 3.4416 and 5.534 and 11.6761 and -0.5648 and 7.283 and 13.1071 and 4.997. For the same compound, the “Agonist activity of 7OH analogs at rKOR” value ([7]; Log [drug](M) -7) was 18.031 and 31.9599 and 33.0367 and -2.212 and 3.5973 and -1.385 and 1.635 and 2.31 and 9.2799, the “Agonist activity of 7OH analogs at rKOR” value ([7]; Log [drug](M) -8) was 5.787 and -5.909 and 29.0355 and 11.9094 and 9.551 and -12.1962 and 10.3961 and -3.525 and 1.154 and the “Agonist activity of 7OH analogs at rKOR” value ([7]; Log [drug](M) -9) was 2.374 and 3.557 and 1.503 and 17.2927 and 4.288 and -5.051 and 9.998 and -1.969 and -2.384. For the same compound, the “Agonist activity of 7OH analogs at rKOR” value ([7]; Log [drug](M) -10) was 1.539 and 1.5713 and -3.1102 and 5.6014 and 10.9469 and 10.7639 and 2.853 and 4.901 and 1.67, the “Agonist activity of 7OH analogs at rKOR” value ([7]; Log [drug](M) -11) was -1.844 and 21.6085 and 6.867 and 10.1299 and 11.9047 and -4.025 and 6.309 and -3.657 and -2.652 and the “Agonist activity of 7OH analogs at rKOR” value ([7]; Log [drug](M) -13) was 18.2754 and 7.8104 and 16.2642 and 12.0322 and 1.984 and 9.1095 and -1.886 and 4.583 and -1.369.
